Measured values: PubChem BioAssay (NCI)
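Tested at 5 concentrations; 48 h exposure; 96-well plates; endpoints linearly interpolated, else capped at highest concentration. TGI is the concentration that stops growth completely.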

Experiments:
Assay in all cases: NCI-60 cell line screen, 48 h
786-0 renal = tested on: 786-0 renal
A498 renal = tested on: A498 renal
A549 NSCLC = tested on: A549 NSCLC
ACHN renal = tested on: ACHN renal
BT-549 breast = tested on: BT-549 breast
CAKI-1 renal = tested on: CAKI-1 renal
CCRF-CEM leukemia = tested on: CCRF-CEM leukemia
COLO 205 colon = tested on: COLO 205 colon
DU-145 prostate = tested on: DU-145 prostate
HCC-2998 colon = tested on: HCC-2998 colon
HCT-116 colon = tested on: HCT-116 colon
HCT-15 colon = tested on: HCT-15 colon
HL-60(TB) leukemia = tested on: HL-60(TB) leukemia
HOP-62 NSCLC = tested on: HOP-62 NSCLC
HS 578T breast = tested on: HS 578T breast
HT29 colon = tested on: HT29 colon
IGROV1 ovarian = tested on: IGROV1 ovarian
K-562 leukemia = tested on: K-562 leukemia
KM12 colon = tested on: KM12 colon
M14 melanoma = tested on: M14 melanoma
MALME-3M melanoma = tested on: MALME-3M melanoma
MCF7 breast = tested on: MCF7 breast
MDA-MB-231 breast = tested on: MDA-MB-231 breast
MDA-MB-435 = tested on: MDA-MB-435
MDA-N = tested on: MDA-N
MOLT-4 leukemia = tested on: MOLT-4 leukemia
NCI-H226 lung = tested on: NCI-H226 lung
NCI-H23 lung = tested on: NCI-H23 lung
NCI-H460 lung = tested on: NCI-H460 lung
NCI-H522 lung = tested on: NCI-H522 lung
NCI/ADR-RES ovarian = tested on: NCI/ADR-RES ovarian
OVCAR-3 ovarian = tested on: OVCAR-3 ovarian
OVCAR-5 ovarian = tested on: OVCAR-5 ovarian
OVCAR-8 ovarian = tested on: OVCAR-8 ovarian
PC-3 prostate = tested on: PC-3 prostate
SF-268 CNS = tested on: SF-268 CNS
SF-295 CNS = tested on: SF-295 CNS
SF-539 CNS = tested on: SF-539 CNS
SK-MEL-2 melanoma = tested on: SK-MEL-2 melanoma
SK-MEL-28 melanoma = tested on: SK-MEL-28 melanoma
SK-MEL-5 melanoma = tested on: SK-MEL-5 melanoma
SK-OV-3 ovarian = tested on: SK-OV-3 ovarian
SN12C renal = tested on: SN12C renal
SNB-19 CNS = tested on: SNB-19 CNS
SNB-75 CNS = tested on: SNB-75 CNS
SR leukemia = tested on: SR leukemia
SW-620 colon = tested on: SW-620 colon
T-47D breast = tested on: T-47D breast
TK-10 renal = tested on: TK-10 renal
U251 CNS = tested on: U251 CNS
UACC-257 melanoma = tested on: UACC-257 melanoma
UACC-62 melanoma = tested on: UACC-62 melanoma
UO-31 renal = tested on: UO-31 renal
EKVX NSCLC = tested on: EKVX NSCLC
HOP-92 NSCLC = tested on: HOP-92 NSCLC
LOX IMVI melanoma = tested on: LOX IMVI melanoma
OVCAR-4 ovarian = tested on: OVCAR-4 ovarian
RPMI-8226 leukemia = tested on: RPMI-8226 leukemia

Measured: TGI

CC(CO)(CO)N1C(=O)C2C3c4ccccc4C(c4ccccc43)C2C1=O (centres undefined)
not listed: EKVX NSCLC | HOP-92 NSCLC | LOX IMVI melanoma | OVCAR-4 ovarian | RPMI-8226 leukemia
> 100 µM: all other assays above

COc1ccc(-n2cnc3c(NCC(=O)O)ncnc32)cc1
not listed: HL-60(TB) leukemia | SF-539 CNS
> 100 µM: all other assays above
